The values that follow come from ChEMBL document CHEMBL6153104, “Discovery of the first potent ROR1 degrader for the treatment of non-small cell lung cancer” (Eur J Med Chem, 2025).

The target in experiment [1] is T1, von Hippel-Lindau disease tumor suppressor/Inactive tyrosine-protein kinase transmembrane receptor ROR1 (Homo sapiens, UniProt P40337+Q01973). As to the kind of experiment: PROTAC activity at VHL/ROR1 in human NCI-H23 cells assessed as induction of ROR1 degradation at 0.1 uM incubated for 24 hrs by Western blot analysis relative to control. It is filed as cell-based.
T1 sequence (P40337 whole entry): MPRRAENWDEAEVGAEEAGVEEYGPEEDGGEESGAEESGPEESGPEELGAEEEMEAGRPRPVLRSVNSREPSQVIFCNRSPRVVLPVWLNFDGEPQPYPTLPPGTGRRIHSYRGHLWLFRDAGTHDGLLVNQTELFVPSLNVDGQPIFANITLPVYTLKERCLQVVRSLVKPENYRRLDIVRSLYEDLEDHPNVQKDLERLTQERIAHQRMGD
T1 sequence (Q01973 30-937 partner limits assumed): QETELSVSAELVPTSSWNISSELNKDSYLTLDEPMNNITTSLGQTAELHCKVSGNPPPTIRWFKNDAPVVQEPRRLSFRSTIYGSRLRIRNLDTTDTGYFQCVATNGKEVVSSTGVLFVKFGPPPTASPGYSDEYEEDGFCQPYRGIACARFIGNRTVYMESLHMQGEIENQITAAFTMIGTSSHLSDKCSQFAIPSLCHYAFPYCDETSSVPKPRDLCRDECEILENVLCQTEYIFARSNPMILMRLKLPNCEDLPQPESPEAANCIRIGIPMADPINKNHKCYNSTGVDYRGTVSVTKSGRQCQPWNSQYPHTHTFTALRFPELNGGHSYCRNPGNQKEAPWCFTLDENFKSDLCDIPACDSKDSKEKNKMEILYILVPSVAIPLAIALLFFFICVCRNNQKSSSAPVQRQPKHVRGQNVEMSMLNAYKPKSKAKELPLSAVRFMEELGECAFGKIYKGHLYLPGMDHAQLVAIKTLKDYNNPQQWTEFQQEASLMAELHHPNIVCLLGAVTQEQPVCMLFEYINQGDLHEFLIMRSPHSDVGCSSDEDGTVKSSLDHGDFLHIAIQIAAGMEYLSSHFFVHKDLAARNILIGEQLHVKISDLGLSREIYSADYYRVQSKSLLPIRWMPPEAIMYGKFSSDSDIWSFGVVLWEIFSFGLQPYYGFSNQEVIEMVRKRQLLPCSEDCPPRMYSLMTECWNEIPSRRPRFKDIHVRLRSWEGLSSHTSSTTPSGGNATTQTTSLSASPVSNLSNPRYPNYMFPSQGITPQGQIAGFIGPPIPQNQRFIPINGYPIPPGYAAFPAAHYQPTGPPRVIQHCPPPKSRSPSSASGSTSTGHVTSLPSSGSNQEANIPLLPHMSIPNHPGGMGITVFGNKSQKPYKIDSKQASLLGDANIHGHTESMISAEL

The target of experiment [2] is T1, von Hippel-Lindau disease tumor suppressor/Inactive tyrosine-protein kinase transmembrane receptor ROR1. As to the kind of experiment: PROTAC activity at VHL/ROR1 in human NCI-H23 cells assessed as induction of ROR1 degradation at 1 uM incubated for 24 hrs by Western blot analysis relative to control. Type of experiment: cell-based. In general terms: A western blot detects proteins with antibodies after separation by electrophoresis.

Molecules are shown by their SMILES.

For `CCN1CCC(Nc2c(Br)cnc3[nH]c(-c4ccc(N5CCN(CCCC(=O)N[C@H](C(=O)N6C[C@H](O)C[C@H]6C(=O)NCc6ccc(-c7scnc7C)cc6)C(C)(C)C)CC5)cc4)nc23)CC1`, the results for the Activity in experiment [1] and in experiment [2] were 22.6% and 23.6%, respectively.
On the same counts, the results for `CCN1CCC(Nc2c(Br)cnc3[nH]c(-c4ccc(N5CCN(C(=O)CCCCCCCCCCC(=O)N[C@H](C(=O)N6C[C@H](O)C[C@H]6C(=O)NCc6ccc(-c7scnc7C)cc6)C(C)(C)C)CC5)cc4)nc23)CC1` are 85.1% and 99.7%.
On the same counts, the results for `CCN1CCC(Nc2c(Br)cnc3[nH]c(-c4ccc(N5CCN(CCCCCC(=O)N[C@H](C(=O)N6C[C@H](O)C[C@H]6C(=O)NCc6ccc(-c7scnc7C)cc6)C(C)(C)C)CC5)cc4)nc23)CC1` are 29.3% and 78.5%.
Taken in the same sequence, the figures for `CCN1CCC(Nc2c(Br)cnc3[nH]c(-c4ccc(N5CCN(C(=O)CCC(=O)N[C@H](C(=O)N6C[C@H](O)C[C@H]6C(=O)NCc6ccc(-c7scnc7C)cc6)C(C)(C)C)CC5)cc4)nc23)CC1` were 32.5% and 85.8%.
`CCN1CCC(Nc2c(Br)cnc3[nH]c(-c4ccc(N5CCN(CC(=O)N[C@H](C(=O)N6C[C@H](O)C[C@H]6C(=O)NCc6ccc(-c7scnc7C)cc6)C(C)(C)C)CC5)cc4)nc23)CC1`: the Activity in experiment [1] amounted to 10.2%; in experiment [2] it was 46.2%.
